Measurements reported in ChEMBL document CHEMBL2331194, “Ligerin, an antiproliferative chlorinated sesquiterpenoid from a marine-derived Penicillium strain” (J Nat Prod, 2013).

How the values were obtained:
[1] = Antiproliferative activity against rat OSRGA cells assessed as inhibition of cell viability after 72 hrs by XTT assay; type: functional, cell-based
[2] = Antiproliferative activity against mouse POS1 cells assessed as inhibition of cell viability after 72 hrs by XTT assay; type: functional, cell-based; settings: POS1, 72 h
[3] = system: KB; test: cells; settings: Homo sapiens, 72 h
Description: Antiproliferative activity against human KB cells assessed as inhibition of cell viability after 72 hrs by MTT assay

[4] = Antiproliferative activity against rat AT6-1 cells assessed as inhibition of cell viability at 60 to 2400 nM after 72 hrs by XTT assay; type: functional
[5] = cells; settings: Rattus norvegicus, 72 h
Description: Antiproliferative activity against rat AT6-1 cells assessed as inhibition of cell viability after 72 hrs by XTT assay

[6] = system: L929; test: cells; settings: Mus musculus, L929, 72 h
Description: Antiproliferative activity against mouse L929 cells assessed as inhibition of cell viability after 72 hrs by XTT assay

[7] = Antiproliferative activity against mouse L929 cells assessed as inhibition of cell viability at 60 to 2400 nM after 72 hrs by XTT assay; type: cell-based; parameters: dose or concentration left out as unconfirmed
[8] = Antiproliferative activity against rat OSRGA cells assessed as inhibition of cell viability at 60 to 2400 nM after 72 hrs by XTT assay; type: functional

IC50 [3] [nM]	IC50 [5] [nM]	Compound	IC50 [1] [nM]	IC50 [2] [nM]	inhibition (INH) [4] [%]	IC50 [6] [nM]	inhibition at 72 h [7] [%]	inhibition (INH) [8] [%]
		COc1cccc2c1C(=O)c1c(O)c3c(c(O)c1C2=O)C[C@@](O)(C(=O)CO)C[C@@H]3O[C@H]1C[C@H](N)[C@H](O)[C@H](C)O1 [DOXORUBICIN]	93	43				
> 478000	> 2400	CO[C@@H]1[C@H](OC(=O)CCC(=O)O)CC[C@](O)(CCl)[C@H]1[C@@]1(C)O[C@@H]1CC=C(C)C [LIGERIN]	> 2400	117	20	> 2400	35	22
> 100000	29400	C=C(C)C1(O)OC(=O)C=C1OC (centres undefined) [PENICILLIC ACID]		7800		12900		
